Measured values as given in the supplement of paper PMC10307832.

Columns and labels:
Experiment in all cases: relative viability (nuclei count vs DMSO), 5 days (fraction); higher = more cells survive
[1] = compound: C=CCc1cccc(/C=N/NC(=O)CN2CCN(Cc3ccccc3)CC2)c1O [PAC-1] + Cc1nc(Nc2ncc(C(=O)Nc3c(C)cccc3Cl)s2)cc(N2CCN(CCO)CC2)n1 [Dasatinib] (partner 0.075 µM)
Summary of the method: (§1)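 Nuclei were stained with Hoechst during a one-step fixation (final 0.05% Triton X-100, 1% formaldehyde, 1 ug/ml Hoechst) carried out 5 days after dosing, then counted on 4× images. The cells, lung cancer lines in 1536-well plates, had been dosed by pin tool the day after seeding with one drug alone or a fixed anchor-drug dose plus five library-drug doses (not always all listed) in √10 steps. Relative viability is the nuclei count in treated wells divided by that in vehicle wells, and each value is the median of duplicate plates.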

[2] = compound: C=CC(=O)Nc1cc(-n2c(=O)ccc3cnc4ccc(-c5ccc(NS(C)(=O)=O)cc5)cc4c32)ccc1C [BMX-IN-1] + C[C@@H](Oc1cc(-c2cnn(C3CCNCC3)c2)cnc1N)c1c(Cl)ccc(F)c1Cl [Crizotinib] (partner 1 µM)
Summary of the method: as §1

[3] = compound: C=CC(=O)Nc1cc(-n2c(=O)ccc3cnc4ccc(-c5ccc(NS(C)(=O)=O)cc5)cc4c32)ccc1C [BMX-IN-1] + CS(=O)(=O)CCNCc1ccc(-c2ccc3ncnc(Nc4ccc(OCc5cccc(F)c5)c(Cl)c4)c3c2)o1 [Lapatinib] (partner 2 µM)
Summary of the method: as §1

Cell Line: NCI-H1993
- relative viability ([1]; first compound 0.02 µM): 0.65
- relative viability ([1]; first compound 0.06325 µM): 0.611
- relative viability ([1]; first compound 0.2 µM): 0.421
- relative viability ([1]; first compound 2 µM): 0.483
- relative viability ([2]; first compound 0.02 µM): 0.912
- relative viability ([2]; first compound 0.2 µM): 0.873
- relative viability ([2]; first compound 2 µM): 0.835
- relative viability ([3]; first compound 0.02 µM): 0.68
- relative viability ([3]; first compound 0.2 µM): 0.754
- relative viability ([3]; first compound 2 µM): 0.815

Cell Line: HCC-366
- relative viability ([1]; first compound 0.02 µM): 0.618
- relative viability ([1]; first compound 0.06325 µM): 0.558
- relative viability ([1]; first compound 0.2 µM): 0.617
- relative viability ([1]; first compound 2 µM): 0.733
- relative viability ([2]; first compound 0.02 µM): 0.582
- relative viability ([2]; first compound 0.2 µM): 1.01
- relative viability ([2]; first compound 0.6325 µM): 0.586
- relative viability ([2]; first compound 2 µM): 0.703
- relative viability ([3]; first compound 0.02 µM): 1.53
- relative viability ([3]; first compound 0.2 µM): 1.65
- relative viability ([3]; first compound 0.6325 µM): 1.07
- relative viability ([3]; first compound 2 µM): 1.12

Cell Line: EMC-BAC-2
- relative viability ([1]; first compound 0.02 µM): 0.388
- relative viability ([1]; first compound 0.06325 µM): 0.303
- relative viability ([1]; first compound 0.2 µM): 0.346
- relative viability ([1]; first compound 2 µM): 0.326
- relative viability ([2]; first compound 0.02 µM): 0.858
- relative viability ([2]; first compound 0.2 µM): 0.877
- relative viability ([2]; first compound 0.6325 µM): 0.797
- relative viability ([2]; first compound 2 µM): 0.718
- relative viability ([3]; first compound 0.02 µM): 0.985
- relative viability ([3]; first compound 0.2 µM): 0.997
- relative viability ([3]; first compound 0.6325 µM): 0.991
- relative viability ([3]; first compound 2 µM): 0.887

Cell Line: NCI-H1975
- relative viability ([1]; first compound 0.02 µM): 0.358
- relative viability ([1]; first compound 0.06325 µM): 0.363
- relative viability ([1]; first compound 0.2 µM): 0.336
- relative viability ([1]; first compound 2 µM): 0.347
- relative viability ([2]; first compound 0.02 µM): 1.31
- relative viability ([2]; first compound 0.2 µM): 1.02
- relative viability ([2]; first compound 0.6325 µM): 1.11
- relative viability ([2]; first compound 2 µM): 0.86
- relative viability ([3]; first compound 0.02 µM): 1.27
- relative viability ([3]; first compound 0.2 µM): 0.869
- relative viability ([3]; first compound 0.6325 µM): 1.23
- relative viability ([3]; first compound 2 µM): 0.929

Cell Line: NCI-H1944
- relative viability ([1]; first compound 0.02 µM): 0.209
- relative viability ([1]; first compound 0.06325 µM): 0.222
- relative viability ([1]; first compound 0.2 µM): 0.204
- relative viability ([1]; first compound 2 µM): 0.216
- relative viability ([2]; first compound 0.02 µM): 1.21
- relative viability ([2]; first compound 0.2 µM): 1.28
- relative viability ([2]; first compound 0.6325 µM): 1.21
- relative viability ([2]; first compound 2 µM): 1.07
- relative viability ([3]; first compound 0.02 µM): 0.986
- relative viability ([3]; first compound 0.2 µM): 0.866
- relative viability ([3]; first compound 0.6325 µM): 0.919
- relative viability ([3]; first compound 2 µM): 0.921

Cell Line: NCI-H650
- relative viability ([1]; first compound 0.02 µM): 0.426
- relative viability ([1]; first compound 0.06325 µM): 0.455
- relative viability ([1]; first compound 0.2 µM): 0.406
- relative viability ([1]; first compound 2 µM): 0.45
- relative viability ([2]; first compound 0.02 µM): 0.881
- relative viability ([2]; first compound 0.2 µM): 0.863
- relative viability ([2]; first compound 0.6325 µM): 0.707
- relative viability ([2]; first compound 2 µM): 0.774
- relative viability ([3]; first compound 0.02 µM): 0.862
- relative viability ([3]; first compound 0.2 µM): 1.11
- relative viability ([3]; first compound 0.6325 µM): 0.982
- relative viability ([3]; first compound 2 µM): 0.858

Cell Line: NCI-H1437
- relative viability ([1]; first compound 0.02 µM): 0.298
- relative viability ([1]; first compound 0.06325 µM): 0.425
- relative viability ([1]; first compound 0.2 µM): 0.459
- relative viability ([1]; first compound 2 µM): 0.278
- relative viability ([2]; first compound 0.02 µM): 1.3
- relative viability ([2]; first compound 0.2 µM): 1.01
- relative viability ([2]; first compound 0.6325 µM): 1.1
- relative viability ([2]; first compound 2 µM): 1.07
- relative viability ([3]; first compound 0.02 µM): 0.928
- relative viability ([3]; first compound 0.2 µM): 0.867
- relative viability ([3]; first compound 0.6325 µM): 0.907
- relative viability ([3]; first compound 2 µM): 0.915

Cell Line: NCI-H2347
- relative viability ([1]; first compound 0.02 µM): 0.28
- relative viability ([1]; first compound 0.06325 µM): 0.3
- relative viability ([1]; first compound 0.2 µM): 0.312
- relative viability ([1]; first compound 2 µM): 0.362
- relative viability ([2]; first compound 0.02 µM): 0.735
- relative viability ([2]; first compound 0.2 µM): 0.678
- relative viability ([2]; first compound 0.6325 µM): 0.675
- relative viability ([2]; first compound 2 µM): 0.624
- relative viability ([3]; first compound 0.02 µM): 1.01
- relative viability ([3]; first compound 0.2 µM): 1.06
- relative viability ([3]; first compound 0.6325 µM): 0.991
- relative viability ([3]; first compound 2 µM): 0.944

Cell Line: NCI-H520
- relative viability ([1]; first compound 0.02 µM): 0.172
- relative viability ([1]; first compound 0.06325 µM): 0.213
- relative viability ([1]; first compound 0.2 µM): 0.19
- relative viability ([1]; first compound 2 µM): 0.225
- relative viability ([2]; first compound 0.02 µM): 1.37
- relative viability ([2]; first compound 0.2 µM): 1.08
- relative viability ([2]; first compound 0.6325 µM): 0.79
- relative viability ([2]; first compound 2 µM): 0.795
- relative viability ([3]; first compound 0.02 µM): 1.04
- relative viability ([3]; first compound 0.2 µM): 0.903
- relative viability ([3]; first compound 0.6325 µM): 1.05
- relative viability ([3]; first compound 2 µM): 0.838

Cell Line: NCI-H1563
- relative viability ([1]; first compound 0.02 µM): 0.446
- relative viability ([1]; first compound 0.06325 µM): 0.431
- relative viability ([1]; first compound 0.2 µM): 0.44
- relative viability ([1]; first compound 2 µM): 0.495
- relative viability ([2]; first compound 0.02 µM): 0.794
- relative viability ([2]; first compound 0.2 µM): 0.887
- relative viability ([2]; first compound 0.6325 µM): 0.86
- relative viability ([2]; first compound 2 µM): 0.761
- relative viability ([3]; first compound 0.02 µM): 0.837
- relative viability ([3]; first compound 0.2 µM): 0.86
- relative viability ([3]; first compound 0.6325 µM): 0.903
- relative viability ([3]; first compound 2 µM): 0.824
